Experiment [1] has as its target T1, Human bradykinin B1 receptor cell line (Homo sapiens, UniProt P46663).
T1 sequence (P46663 1-353): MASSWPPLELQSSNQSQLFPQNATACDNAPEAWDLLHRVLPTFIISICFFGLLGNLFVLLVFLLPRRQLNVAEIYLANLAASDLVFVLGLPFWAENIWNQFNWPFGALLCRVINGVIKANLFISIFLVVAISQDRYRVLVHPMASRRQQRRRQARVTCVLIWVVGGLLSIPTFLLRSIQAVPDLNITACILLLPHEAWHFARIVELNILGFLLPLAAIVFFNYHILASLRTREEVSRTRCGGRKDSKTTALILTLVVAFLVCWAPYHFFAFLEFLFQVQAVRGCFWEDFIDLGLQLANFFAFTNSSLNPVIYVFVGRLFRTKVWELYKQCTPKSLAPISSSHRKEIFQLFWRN
Kind of experiment: Bradykinin B1 receptor antagonistic activity by intracellular calcium assay (Fluo-4, LDBK agonist). It counts as cell-based. The following applies: human B1 receptor cells, Fluo-4 calcium assay, agonist LDBK at EC80, with washing step. As for the experimental part:
(§1) Human bradykinin B1 receptor cell line (Product #ES-091-C), Human bradykinin B2 receptor aequorin cell line (Product #ES-090-A), Fluo-4 calcium assay kits (Molecular Probes).
(§2) Agonist for B1 receptor cell line is Lys-[Des-Arg9]-Bradykinin (LDBK) and antagonist is R715. Agonist for B2 receptor cell line is BK (bradykinin) and antagonist is HOE140. All the agonist and antagonist were procured from TOCRIS. Dye loading solution was prepared by adding 10 mL of assay buffer and 100 μL of the probenecid stock solution (provided in the Kit) to one bottle of component A (dye concentrate). 0.4% Triton X-100 (4X) was used as positive control (PC) and was prepared by adding 38 uL of Triton X-100 in 10 mL of working assay buffer (WAB).
(§3) Human bradykinin B1 receptor cell line (B1) and human bradykinin B2 receptor aequorin cell line (B2) was procured from PerkinElmer, Waltham, Mass. B1 cells were cultured and maintained in Ham's F-12 medium (Gibco) supplemented with 10% fetal bovine serum (FBS) (Gibco) and 0.4 mg/ml Geneticin (Gibco) in a humidified incubator at 37° C. with 5% CO2. B2 cells were cultured and maintained in Ham's F-12 medium (Gibco) supplemented with 10% fetal bovine serum (FBS) (Gibco), 0.4 mg/ml Geneticin (Gibco) and 5 μg/ml Puromycin (Gibco) in a humidified incubator at 37° C. with 5% CO2. All the test compounds were weighed and dissolved in DMSO and a stock of 20 mM was prepared and stored at −20° C.
(§4) Bradykinin receptor antagonist screening assay was performed using Fluo-4 calcium assay kits by following the manufacturer's instruction. Briefly, approximately 30,000 of human either B1 or B2 cells were seeded in each well of a 96 black well plate. After 24 h, the growth media was removed and washed with 200 μL of assay buffer provided in the Fluo-4 calcium assay kits. Thereafter, 100 uL of Flu-4 dye-loading solution was added in each well of 96 well plate and incubated it at 37° C. for about 30 min. After about 30 minutes of incubation at room temperature, dye loading solution was removed and washed with 200 μL of WAB (mentioned in materials). Post washing, into 100 uL of WAB, 50 uL of WAB or 50 uL of cell line receptor specific antagonist (mentioned in materials) or test compound dilutions were added in 96 well plate. The plates were incubated for 20 min at room temperature with shaking at 300 rpm. At the end of the incubation time, the plates were inserted into the CLARIOstar microplate reader and % gain was adjusted. Thereafter, the plates were read at Ex/Em=494/516 nm for baseline RFU (Range 1). Thereafter, the microplate reader was paused at 11th cycle and 50 uL of 4× (EC80) cell line specific agonist (mentioned in materials) or PC dilution prepared in WAB was added and manually the plates were shaked for 5 sec. Again, the plates were read at Ex/Em=494/516 nm (Range 2).
(§5) Delta RFU was calculated using the formula:
(§6) Delta RFU=Range 2 avg RFU−Range 1 avg RFU
(§7) Based on the data the IC50 or Percent Inhibition of all the compounds was calculated.
(§8) Note: The above assay was performed using plate (flying) mode function of CLARIOstar.

The target in experiment [2] is T2, Human bradykinin B2 receptor aequorin cell line (Homo sapiens, UniProt P30411).
T2 sequence (P30411 1-391): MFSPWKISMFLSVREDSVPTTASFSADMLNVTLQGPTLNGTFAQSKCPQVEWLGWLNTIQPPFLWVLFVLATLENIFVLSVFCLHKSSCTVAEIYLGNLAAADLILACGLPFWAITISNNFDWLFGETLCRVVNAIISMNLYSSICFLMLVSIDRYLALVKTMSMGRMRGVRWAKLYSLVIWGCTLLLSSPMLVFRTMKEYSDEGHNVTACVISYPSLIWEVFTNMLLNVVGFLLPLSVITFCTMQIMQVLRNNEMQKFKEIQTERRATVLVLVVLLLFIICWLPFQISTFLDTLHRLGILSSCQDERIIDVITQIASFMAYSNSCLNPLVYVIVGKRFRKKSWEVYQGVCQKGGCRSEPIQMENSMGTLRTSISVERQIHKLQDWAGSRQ
Kind of experiment: Bradykinin B2 receptor antagonistic activity by intracellular calcium assay (Fluo-4, BK agonist). It counts as cell-based. The following applies: for IC50: human B2 receptor cells, Fluo-4 calcium assay, agonist BK at EC80, with washing step. The procedure: as §1, §2, §3, §4, §5, §6, §7, §8
A general note: Calcium flux is commonly read through the fluorescence of an indicator in the cells.

Some results are limits rather than exact numbers.

Broadly, the IC50 is the concentration needed to halve the response being measured. As to `Nc1nc(N)c(/N=N/c2ccc(O)cc2)cc1O` [Compound V], the 50% inhibitory concentration (IC50) was 29.5 µM in experiment [1] and above 100 µM in experiment [2]. With `Nc1ccc(/N=N/c2ccccc2)c(N)n1` [Compound I], the IC50 in experiment [1] is 32.4 µM; in experiment [2] it was 31.9 µM. With `Nc1nc(N)c(/N=N/c2ccccc2)cc1O` [Compound II], the IC50 in experiment [1] came out at 12.5 µM; in experiment [2] it was 13.2 µM.

Regarding HOE-140 [reference compound], the “IC50 without washing steps relative to IC50 with washing step” value in experiment [2] is listed as “approximately 15 fold”. With `Nc1ccc(/N=N/c2ccc(O)cc2)c(N)n1` [Compound III], the results for the half-inhibitory concentration (IC50) in experiment [1] and in experiment [2] were 27.1 µM and 21.3 µM, respectively. For `Nc1ccc(/N=N/c2ccccc2O)c(N)n1` [Compound IV], the IC50 stood at 8.4 µM in experiment [1] and 10.9 µM in experiment [2].

The values above are taken from patent publication US20220317111A1, “BIOASSAY METHOD” (KASHIV BIOSCIENCES, LLC, priority 2021, published 2022).
